# According to patent US20160082036A1, “HYDROXYALKYL STARCH FOR THE TREATMENT OF CANCERS BY REDUCTION OF TUMOR GROWTH RATES” (Fresenius Kabi Deutschland GmbH, priority 2012, published 2016):
# “Also recorded” adds a separate entry of the source.
# Key:
# [1] = Example 6.2: body weight of LXFE 397 tumor-bearing mice; format: in vivo, NMRI nu/nu mice; conditions: FIG. 16
# Procedure: The application volume was 20 ml/kg mouse body weight for saline and Voluven® 10% (i.v.) and 100 mg/kg for Capecitabine (p.o.).
# [2] = Example 6.1: body weight of LXFL 529 tumor-bearing mice; format: in vivo, NMRI nu/nu mice; conditions: FIG. 14
# Procedure: The application volume was 20 ml/kg mouse body weight for saline and Voluven® 10% and 10 ml/kg of the 1 mg/ml solution for Everolimus (administered final dose 10 mg/kg). The route of administration was by i.v. injection into the tail vein for saline and Voluven® 10%. 10 mg/kg of body weight Everolimus was administered p.o.
# [3] = test system: human prostate carcinoma cell line PC-3; test: Example 4: PC-3 xenograft tumor growth in nude mice; format: in vivo; conditions: 3 week observation period; FIG. 5
# Procedure: In another study which was performed in analogy to the study described above, the effect of “Voluven 10%” was tested on a different cancer cell line, i.e. on prostate cancer cell line PC3.
# The rapidly growing human prostate carcinoma cell line PC-3 was used as xenograft tumor model in nude mice to test the efficacy of Voluven® 10% on reduction of tumour growth rates. Paclitaxel was employed as positive control and saline as negative control.
# • Strain: NMRI nude (homozygous)-Rj:NMRI-nu • Sex: Female • Supplier: Elevage Janvier, Route des Chènes Secs, 53940 Le Genest St. Isle, France • Health status: SPF • Age at delivery: 5-6 weeks • Acclimatization: At least 6 days […]
# Tumor measurement: The tumor growth was measured three times a week (e.g. Monday, Wednesday, and Friday) beginning with study day 3 (tumor measurable at size approx. 3 mm in diameter). Tumor volumes were calculated according to V=(length×(width)^2)/2. […]
# To prepare the paclitaxel solution at a concentration of 2.5 mg/ml the paclitaxel stock solution (6 mg/ml) was diluted with 0.9% isotonic saline. […] Saline and Voluven® 10% were provided as ready-to-use formulations. […]
# Statistical analyses of data were performed for each group separately. Group medians were calculated for body weights and tumor measurements for each investigation time. […] For the evaluation of tumor volume/area and T/C values were calculated using Microsoft Excel 7.0.
smiles,measurement,setting,value
CCCCCOC(=O)Nc1nc(=O)n([C@@H]2O[C@H](C)[C@@H](O)[C@H]2O)cc1F [Capecitabine],body weight (in words),[1],not reduced
CO[C@H]1C[C@@H]2CC[C@@H](C)[C@@](O)(O2)C(=O)C(=O)N2CCCC[C@H]2C(=O)O[C@H]([C@H](C)C[C@@H]2CC[C@@H](OCCO)[C@H](OC)C2)CC(=O)[C@H](C)/C=C(\C)[C@@H](O)[C@@H](OC)C(=O)[C@H](C)C[C@H](C)/C=C/C=C/C=C/1C [Everolimus],body weight (in words),[2],slight reduction
"CC(=O)O[C@H]1C(=O)[C@@]2(C)[C@H]([C@H](OC(=O)c3ccccc3)[C@]3(O)C[C@H](OC(=O)[C@H](O)[C@@H](NC(=O)c4ccccc4)c4ccccc4)C(C)=C1C3(C)C)[C@]1(OC(C)=O)CO[C@@H]1C[C@@H]2O [paclitaxel, Paclitaxel]",effect on tumor volume (in words),[3],stable tumour size or reduced the tumor volume; also recorded: decrease of the initial tumor volume
